The values below come from PubChem BioAssay (NCI).

As a reminder, the GI50 is the concentration giving 50% growth inhibition. As usually defined, the TGI is the concentration giving total growth inhibition. High values mean less potent growth arrest, low ones more potent growth arrest.

Each structure is given as a SMILES string.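 Assay format: 96-well plates, 48-hour exposure. GI50 marks 50% less growth. TGI denotes the concentration required for complete inhibition of growth.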

Some test systems named below: CCRF-CEM leukemia; HCC-2998 colon; NCI-H226 lung; NCI-H522 lung; OVCAR-8 ovarian; SK-MEL-5 melanoma; SNB-75 CNS; SW-620 colon; TK-10 renal; UACC-62 melanoma.
Holding throughout (experiment): DTP human tumour cell line panel, 48 h

For `CCCCCCCCCCCCCCCCCC(=O)[O][Sn]([CH2]CCC)([CH2]CCC)[CH2]CCC`, the GI50 in the assay on CCRF-CEM leukemia was 0.17 µM; with HCC-2998 colon, 0.139 µM; in the assay with NCI-H226 lung it was 0.162 µM; with NCI-H522 lung it was 140 nM; in the assay with OVCAR-8 ovarian, 0.197 µM; in the assay on SK-MEL-5 melanoma, 0.141 µM. Moreover, the GI50 in the assay with SNB-75 CNS was 124 nM; in the assay on SW-620 colon, 0.137 µM; in the assay with TK-10 renal it was 164 nM; with UACC-62 melanoma it was 0.176 µM. The TGI in the assay with HCC-2998 colon amounted to 0.279 µM; with NCI-H226 lung, 0.319 µM; in the assay on NCI-H522 lung, 0.318 µM; with OVCAR-8 ovarian, 0.451 µM; with SK-MEL-5 melanoma, 0.272 µM; with SNB-75 CNS, 0.269 µM. Besides, the results for the concentration for total growth inhibition (TGI) with SW-620 colon, in the assay with TK-10 renal and with UACC-62 melanoma were 0.289 µM, 0.311 µM and 0.45 µM, respectively.

Consider `CN(C)c1cc2c(cc1Sc1nc3c(N)nccc3n1CCNCC(C)(C)C)OCO2`, for which the GI50 in the assay on CCRF-CEM leukemia was 0.317 µM; with HCC-2998 colon, 0.805 µM; in the assay on NCI-H226 lung, 1.69 µM; in the assay on NCI-H522 lung, 453 nM; with OVCAR-8 ovarian, 0.399 µM; in the assay with SK-MEL-5 melanoma, 0.713 µM. Further, the GI50 with SNB-75 CNS is 1530 nM; in the assay with SW-620 colon, 0.383 µM; in the assay with TK-10 renal it was 531 nM; in the assay with UACC-62 melanoma, 0.432 µM. In addition, the TGI in the assay on CCRF-CEM leukemia was 18.2 µM; in the assay on HCC-2998 colon it was 6.03 µM; with NCI-H226 lung it was 19.7 µM; in the assay on NCI-H522 lung, 14.3 µM; in the assay with OVCAR-8 ovarian it was 15.8 µM; with SK-MEL-5 melanoma it was 13.2 µM. Besides, the TGI in the assay with SNB-75 CNS amounted to 19.1 µM; in the assay with SW-620 colon, 13.8 µM; in the assay with TK-10 renal, 19.4 µM; in the assay on UACC-62 melanoma, 5.41 µM.

As for `Cc1cc(N2CCOCC2)nc(N(CCNc2ccnc3cc(Cl)ccc23)Cc2ccco2)n1`, the GI50 in the assay on CCRF-CEM leukemia is 3.18 µM; in the assay on HCC-2998 colon, 6.12 µM; with NCI-H226 lung it was 3.78 µM; in the assay with NCI-H522 lung, 1840 nM; in the assay on OVCAR-8 ovarian, 3.84 µM; with SK-MEL-5 melanoma it was 3.1 µM. The GI50 in the assay on SNB-75 CNS is 2590 nM; in the assay on SW-620 colon, 3.39 µM; with TK-10 renal it was 2710 nM; with UACC-62 melanoma, 3.25 µM. Further, the TGI in the assay with CCRF-CEM leukemia is > 100 µM; with HCC-2998 colon, 44.8 µM; with NCI-H226 lung, 25.5 µM; with NCI-H522 lung, 4.75 µM; with OVCAR-8 ovarian it was > 100 µM; with SK-MEL-5 melanoma it was 12.1 µM. The TGI in the assay with SNB-75 CNS was found to be 7.77 µM; with SW-620 colon, 45.2 µM; in the assay with TK-10 renal, 9.62 µM; in the assay on UACC-62 melanoma it was 10 µM.

Regarding `COC(=O)C1C(=O)O[C@@H](c2ccc(OC)cc2)C1C(=O)OC` (stereo partly specified), the TGI in the assay with CCRF-CEM leukemia, with HCC-2998 colon, in the assay on NCI-H226 lung, in the assay on OVCAR-8 ovarian, in the assay with SK-MEL-5 melanoma and in the assay with SNB-75 CNS was > 100 µM throughout. The TGI with SW-620 colon, in the assay on TK-10 renal and in the assay on UACC-62 melanoma was > 100 µM throughout.

Take `COc1ccc(C2=C(Br)C(=O)OC2)cc1Cl`: the GI50 in the assay on CCRF-CEM leukemia was 21.9 µM; in the assay on HCC-2998 colon, 14.9 µM; in the assay with NCI-H226 lung, 25 µM; with NCI-H522 lung it was 37800 nM; with OVCAR-8 ovarian, 20.2 µM; in the assay on SK-MEL-5 melanoma it was 29.1 µM. In addition, the GI50 in the assay on SNB-75 CNS is 55800 nM; in the assay on SW-620 colon, 32.2 µM; with TK-10 renal it was 26800 nM; in the assay on UACC-62 melanoma, 20.9 µM. The TGI is > 68 µM in the assay on CCRF-CEM leukemia; 38.2 µM in the assay on HCC-2998 colon; 62.7 µM in the assay with NCI-H226 lung; > 100 µM with NCI-H522 lung; > 52.7 µM with OVCAR-8 ovarian; > 100 µM with SK-MEL-5 melanoma. Besides, the TGI in the assay with SNB-75 CNS was > 100 µM; in the assay on SW-620 colon, > 100 µM; with TK-10 renal, 77.9 µM; with UACC-62 melanoma, > 64.4 µM.

`O=C1C(=O)c2ccccc2C=C1[N+](=O)[O-]`: the total growth inhibition concentration (TGI) in the assay on CCRF-CEM leukemia was 86.1 µM; with HCC-2998 colon, > 100 µM; in the assay with NCI-H226 lung, > 100 µM; in the assay with NCI-H522 lung it was > 100 µM; in the assay on OVCAR-8 ovarian, > 100 µM; in the assay on SK-MEL-5 melanoma, 46.4 µM. For the same compound, the TGI in the assay with SNB-75 CNS is > 100 µM; with SW-620 colon, > 100 µM; in the assay with TK-10 renal, > 100 µM; in the assay on UACC-62 melanoma it was 80.1 µM.

Regarding `Oc1ccc(Cl)cc1Cc1cc(Cl)cc(Cc2cc(Cl)ccc2O)c1O`, the TGI was found to be 15.3 µM with CCRF-CEM leukemia; 2.79 µM in the assay with HCC-2998 colon; 7.07 µM with NCI-H226 lung; 3.32 µM with NCI-H522 lung; 16.8 µM in the assay on OVCAR-8 ovarian; 2.56 µM with SK-MEL-5 melanoma. Besides, the TGI came out at 10.3 µM in the assay with SNB-75 CNS, 13.5 µM with SW-620 colon, 9.17 µM in the assay on TK-10 renal and 10.1 µM in the assay with UACC-62 melanoma.

As to `NC(=O)c1ncn(C2OC(CO)C(O)C2O)n1` (stereo unspecified), the GI50 was 4.73 µM in the assay with CCRF-CEM leukemia; > 100 µM with HCC-2998 colon; > 100 µM in the assay on NCI-H226 lung; > 100000 nM in the assay on NCI-H522 lung; 45.4 µM in the assay with OVCAR-8 ovarian; > 100 µM in the assay on SK-MEL-5 melanoma. Further, the GI50 in the assay on SW-620 colon is 22.8 µM; with TK-10 renal it was > 100000 nM; with UACC-62 melanoma, > 100 µM. The TGI was 49.6 µM in the assay with CCRF-CEM leukemia; > 100 µM with HCC-2998 colon; > 100 µM in the assay on NCI-H226 lung; > 100 µM in the assay with NCI-H522 lung; > 100 µM with OVCAR-8 ovarian; > 100 µM with SK-MEL-5 melanoma. Further, the TGI in the assay with SW-620 colon, in the assay with TK-10 renal and with UACC-62 melanoma was > 100 µM throughout.

Regarding `CN(C)c1cc2c(Nc3ccc4nc(Cc5ccccc5)[nH]c4c3)ncnc2cn1`, the GI50 in the assay on CCRF-CEM leukemia was > 18.7 µM; in the assay on HCC-2998 colon, > 25 µM; in the assay with NCI-H226 lung, > 18 µM; in the assay on NCI-H522 lung, 10900 nM; with OVCAR-8 ovarian, > 17.4 µM; in the assay on SK-MEL-5 melanoma, 8.99 µM. Besides, the GI50 in the assay on SNB-75 CNS is > 13900 nM; in the assay with SW-620 colon, > 21.5 µM; with TK-10 renal, 4900 nM; in the assay with UACC-62 melanoma, > 18.3 µM. Moreover, the total growth inhibition concentration (TGI) in the assay with CCRF-CEM leukemia is > 25 µM; in the assay with HCC-2998 colon, > 25 µM; in the assay with NCI-H226 lung, > 25 µM; in the assay on NCI-H522 lung, > 25 µM; in the assay on OVCAR-8 ovarian it was > 25 µM; in the assay on SK-MEL-5 melanoma, > 16 µM. Besides, the TGI with SNB-75 CNS, in the assay on SW-620 colon, with TK-10 renal and in the assay with UACC-62 melanoma was > 25 µM throughout.
